# Molecular target: PI-PLC, Bacillus cereus (recombinant) (Bacillus cereus, UniProt P14262)
# Test: Inhibition of PI-PLC (B. cereus), cleavage of GPI-protein, TX-114 partitioning
# Type: biochemical
# From the text: Human recombinant insulin, PIG41 (disclosed in “Frick, W. et al., (1998) Biochemistry 37, 13421-13436”) and glimepiride (trade name Amaryl) were supplied by the medicinal chemistry and synthesis departments of Aventis Pharma Germany (Frankfurt, Germany). 12-((7-nitrobenz-2-oxa-1,3-diazol-4-yl)amino)dodecanoic acid (NBD-FA) was synthesized as described in Müller et al., (1997) Biochem. Biophys. Acta 1347: 23-39. Collagenase (Worthington, CLS, type I, 250 units/mg) was provided by Biochrom (Berlin, Germany). Lipoprotein lipase (LPL, affinity-purified) from bovine milk, phospholipase A2 (honey bee venom), crude porcine pancreatic lipase (PL), recombinant PC- and PI-PLC (Bacillus cereus), crude PLD (cabbage) and defatted BSA (fraction V) were delivered by SigmalAldrich (Deisenhofen, Germany), crude PI-PLC (rat liver) and proteinase inhibitors were purchased from Roche Molecular Biochemicals (Mannheim, Germany). Recombinant GPI-PLC (Trypanosoma brucei) was obtained from Oxford Glycosystems (Oxford, UK). Inhibitors of PLA2 (AACOCF3) and PLC (U 73122) were from Tocris (Avonmouth, UK). Bisbodipy-C11-PC was bought from Molecular Probes (Eugene, Oreg.). Lipids were purchased from Avanti Polar Lipids (Birmingham, Ala.). […]
# PI-PLC, Bacillus cereus (recombinant), sequence (P14262 32-329 limits assumed): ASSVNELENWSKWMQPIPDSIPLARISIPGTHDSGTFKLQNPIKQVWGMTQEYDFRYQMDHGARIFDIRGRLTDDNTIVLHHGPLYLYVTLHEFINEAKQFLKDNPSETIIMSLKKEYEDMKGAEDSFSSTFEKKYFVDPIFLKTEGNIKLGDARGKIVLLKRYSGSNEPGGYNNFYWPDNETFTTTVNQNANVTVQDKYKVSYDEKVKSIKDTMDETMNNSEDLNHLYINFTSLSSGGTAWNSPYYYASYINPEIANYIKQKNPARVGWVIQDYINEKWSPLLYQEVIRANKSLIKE
smiles,measurement,value
"CCCCCCCCCCCCP1(=O)O[C@@H]2[C@H](O)[C@@H](O)[C@H](O)[C@@H](O)[C@@H]2O1 (stereo partly shown) [GPI-2350, myo-inositol-1,2-cyclo-dodecylphosphonic acid]",inhibition in words,potent inhibitor
